This is an account of results in patent publication US11559575B2, “Multi-epitopic peptide compounds and vaccines against leishmaniasis” (INSTITUT DE RECHERCHE POUR LE DEVELOPPEMENT, priority 2018, dated 2023).

“Also recorded” adds a separate entry of the source.

Test [1] has as its system HLA alleles of class I. Briefly: Affinity of epitopes for HLA alleles of class I. The test is classed as binding, human. The note with it: for Affinity for the HLA alleles of class I: H2B-1 epitopes, Table 1; for Concatenation affinity for HLA allele of class I: LmLRAB (IA, IB, IC) epitopes, Table 2. The source says: The multiepitopic peptide compounds (24 to 40-mer), having a high affinity with a maximized number of HLA molecules of class I and of class II, such as the affinities for the alleles HLA of class I and HLA of class II of the epitopes in the peptides of the sequences SEQ ID NO: 22, 23, 65, 66, 69, 73, 77, 96, 97, 137, 138, and 157, 185, have a high immunoprevalent potential corresponding to an optimal vaccine coverage, in particular for the populations concerned. The degree of coverage of the peptide compounds of the invention show a very high added value compared with the peptides of the prior art.

The test system of test [2] is HLA supertypes of class I. Kind of test: Affinity of epitopes for HLA supertypes of class I. The note with it: for Affinity for the HLA supertypes of class I: H2B-1 epitopes, Table 1; for Affinity for HLA supertypes of class I: LmLRAB (IA, IB, IC) epitopes, Table 2. It counts as binding, human. The source says: HLA molecules are highly polymorphous. This is because there exist more than 2500 HLA proteins of class I (HLA-I) and more than 1000 HLA proteins of class II (HLA-II). However, some of these HLA molecules, close in sequence and in spatial conformation, may have epitopes common to the T cells. The grouping of several thousands of HLA molecules is at the present time described in a little more than 20 or so categories, referred to as “HLA supertypes” having epitopes that are very well preserved for each supertype.

Test [3] deals with CD4+ T cells of a naive individual (MPL10). Kind of test: IFN-γ ELISPOT with CD4+ T cells and autologous dendritic cells of a naive individual (long protocol, three stimulations). It counts as cell-based, human. Here is the method: The immunogenicity was evaluated, with combinations of peptides (combination corresponding to the “Pool H”) at 1 μM for each peptide, from samplings of blood of naive individuals and according to a long protocol with at least three successive stimulations. An IFN-γ ELISPOT test for measuring the frequency of the pre-existing naive T cells and the amplitude of the specific naive T repertoire for each peptide, was performed with the CD4+ T cells and the autologous dendritic cells of a naive individual in the presence or absence of the mixture of peptides, or in the presence of each peptide individually. […] The “Pool H” combination was used either with peptides not modified at the amino-terminal end and with amidation of the carboxy-terminal end, or with peptides chemically modified by a palmitoyl tail at the amino-terminal end and with amidation of the carboxy-terminal end.
The evaluation of the immunogenicity properties of peptide compounds according to the invention in naive individuals, persons who have never been in contact with the Leishmania parasite, is an important factor in predicting the efficacy of a peptide vaccine (Kwok WW et al, 2012, Frequency of epitope-specific naive CD4(+) T cells correlates with immunodominance in the human memory repertoire; Castelli F A et al, 2007, Differential capacity of T cell priming in naive donors of promiscuous CD4+ T cell epitopes of HCV NS3 and Core proteins). Immunogenicity is evaluated in vitro by measuring the frequency of the pre-existing naive T cells and the amplitude of the naive T repertoire specific for each compound. The evaluation is carried out using blood samples from naive individuals and in accordance with a long protocol (Castelli F A, et al. 2007 as aforementioned) putting purified T lymphocytes in contact with autologous dendritic cells previously incubated with the peptides of the invention. The combination of peptides used is composed of: SEQ ID NO: 23, SEQ ID NO: 66, SEQ ID NO: 73, SEQ ID NO: 77, SEQ ID NO: 97, SEQ ID NO: 138, SEQ ID NO: 157, SEQ ID NO: 185, SEQ ID NO: B11, SEQ ID NO: B12 and SEQ ID NO: B13. The compounds were synthesized chemically without amino-terminal modification and with carboxy-terminal (peptide-NH2) amidation (NH2). After three successive stimulations at intervals of seven days of the CD4+ T cells of a naive individual (MPL10; Établissement français du sang de Toulouse), an IFN-γ ELISPOT was carried out with the cells in the presence or absence of the mixture of peptides, or in the presence of each compound individually. […] Each positive line responds to at least one of the peptides of the present invention. The MPL10-3 line responds to the peptides SEQ ID NO: 73 and SEQ ID NO: 157. The MPL10-4 line responds to the peptides SEQ ID NO: 23, SEQ ID NO: 73, SEQ ID NO: 77, SEQ ID NO: 97, SEQ ID NO: 138 and SEQ ID NO: 157. The MPL10-7 line responds to the peptides SEQ ID NO: 77, SEQ ID NO: 97 and SEQ ID NO: 157. The MPL10-8 line responds to the peptides SEQ ID NO: 66, SEQ ID NO: 73, SEQ ID NO: 97, SEQ ID NO: 138 and SEQ ID NO: 157. The MPL10-10 line responds to the peptides SEQ ID NO: 66, SEQ ID NO: 73, SEQ ID NO: 77, SEQ ID NO: 97, SEQ ID NO: 138, SEQ ID NO: 157 and SEQ ID NO: 185. And the MPL10-12 line responds to the peptides SEQ ID NO: 66, SEQ ID NO: 157 and SEQ ID NO: 185.
The evaluation of the immunogenicity properties of peptide compounds of the invention in the same naive individual (MPL10) but with chemically synthesized compounds with the addition of a palmitoylated tail at the amino-terminal end and with an NH2 group at the carboxy-terminal end (PAL-peptide-NH2) was also performed. The same combination of peptides as before was used. After three stimulations with the mixture of PAL-peptide-NH2 peptides, an IFN-g ELISPOT was carried out with the cells in the presence or absence of the mixture of peptides, or in the presence of each peptide individually. […]

Setting [4] is: MPL10-PAL-2 line, PAL-peptide-NH2.
Setting [5] is: MPL10-PAL-3 line, PAL-peptide-NH2.

Consider “MSMSHRTMKS (Leishmania major) [SEQ ID NO: 13]”, for which the “Affinity for the HLA alleles of class I” value in test [1] is recorded as “HLA-A*03:01,; also recorded: HLA-A*11:01”. Further, the “Affinity for the HLA supertypes of class I” value in test [2] is listed as “HLA-A*03”.
On to “MSMSHRTMKSMSHRTMKIKAINAQMSMMERICTEAA (Leishmania major) [SEQ ID NO: 22]”, for which the “IFN-γ ELISPOT response of specific line to individual peptide” value (“IFN-γ ELISPOT response of specific line” for short) in test [3] (setting [4]) is on record as “responds”.
Take “MPHVDQSSI (Leishmania major) [SEQ ID NO: 74]”: the “Concatenation affinity for HLA allele of class I” value (shortened to “Concatenation affinity”) in test [1] is reported as “HLA-B*07:02,; also recorded: HLA-B*35:01,; also recorded: HLA-B*51:01,; also recorded: HLA-B*53:01,; also recorded: HLA-B*08:01”. Further, the “Affinity for HLA supertypes of class I” value in test [2] is reported as “HLA-B*07,; also recorded: HLA-B*08”.
With “MMERICTEAA (Leishmania major) [SEQ ID NO: 7]”, the “Affinity for the HLA alleles of class I” value in test [1] is “HLA-A*02:03”. Further, in test [2], the “Affinity for the HLA supertypes of class I” value was “HLA-A*02”.
Consider “SEQ ID NO: 66: multiepitopic peptide compound of overlapping H2B epitopes of sequences SEQ ID NO: 24 to 64; sequence not printed (KGRKPKRSWNVYVGRSLKAINAQMSMSHRTMKIV; Leishmania major)”, for which the “IFN-γ ELISPOT response of specific line” value in test [3] (MPL10-8 line, peptide-NH2) is reported as “responds”; in test [3] (MPL10-10 line, peptide-NH2) it was “responds”; in test [3] (MPL10-12 line, peptide-NH2) it was “responds”; in test [3] (setting [4]), “responds”; in test [3] (setting [5]), “responds”.
Take “SMSHRTMKIK (Leishmania major) [SEQ ID NO: 17]”: in test [1], the “Affinity for the HLA alleles of class I” value is recorded as “HLA-A*03:01,; also recorded: HLA-A*11:01,; also recorded: HLA-A*30:01”. Besides, the “Affinity for the HLA supertypes of class I” value in test [2] is on record as “HLA-A*01/HLA-; also recorded: A*03, HLA-A*03”.
As for “SSIMVVANK (Leishmania major) [SEQ ID NO: 76]”, the “Concatenation affinity” value in test [1] is “HLA-A*30:01,; also recorded: HLA-A*03:01,; also recorded: HLA-A*11:01,; also recorded: HLA-A*31:01,; also recorded: HLA-A*68:01”. For the same substance, the “Affinity for HLA supertypes of class I” value in test [2] is given as “HLA-A*01/HLA-A*03,”.
Regarding “MSHRTMKIK (Leishmania major) [SEQ ID NO: 8]”, the “Affinity for the HLA alleles of class I” value in test [1] is on record as “HLA-A*30:01,; also recorded: HLA-A*03:01,; also recorded: HLA-A*11:01”. Moreover, the “Affinity for the HLA supertypes of class I” value in test [2] is “HLA-A*01/HLA-A*03,”.
Taken in the same sequence, the figures for “MMERICTEA (Leishmania major) [SEQ ID NO: 5]” were “HLA-A*02:03,; also recorded: HLA-A*02:01” and “HLA-A*02”.
Take “TMKSMSHRT (Leishmania major) [SEQ ID NO: 20]”: the “Affinity for the HLA alleles of class I” value in test [1] was “HLA-A*02:03”. Besides, the “Affinity for the HLA supertypes of class I” value in test [2] is “HLA-A*02”.
For the substance “KARYMSMSHRTMKSMSHRTMKIKAINAQMSMMERICTEAA (Leishmania major) [SEQ ID NO: 23]”, the “IFN-γ ELISPOT response of specific line” value in test [3] (MPL10-4 line, peptide-NH2) is recorded as “responds”; in test [3] (setting [5]), “responds”.
Regarding “KARYRFAQGEHDIRLPENAFVIARYTQGSSKAGF (Leishmania major) [SEQ ID NO: 73]”, the “IFN-γ ELISPOT response of specific line” value in test [3] (MPL10-3 line, peptide-NH2) was “responds”; in test [3] (MPL10-4 line, peptide-NH2) it was “responds”; in test [3] (MPL10-8 line, peptide-NH2), “responds”; in test [3] (MPL10-10 line, peptide-NH2), “responds”; in test [3] (setting [4]), “responds”; in test [3] (setting [5]), “responds”.
As to “ASFRSTEAI (Leishmania major) [SEQ ID NO: 75]”, the “Concatenation affinity” value in test [1] is “HLA-A*32:01,; also recorded: HLA-B*15:03,; also recorded: HLA-B*1517”. In test [2], the “Affinity for HLA supertypes of class I” value was “HLA-A*01,; also recorded: HLA-B*27,; also recorded: HLA-B*58”.
Consider “SMSHRTMKS (Leishmania major) [SEQ ID NO: 18]”, for which, in test [1], the “Affinity for the HLA alleles of class I” value is on record as “HLA-A*02:03”. Also, the “Affinity for the HLA supertypes of class I” value in test [2] was “HLA-A*02”.
As for “KEMPSGSDYSHMSIRDLDFSNMGLLLSGT (KEMPSGSDYSHSMIRDLDFSNMGLLLSGT; listed as Leishmania infantum) [SEQ ID NO: 185]”, the “IFN-γ ELISPOT response of specific line” value is listed as “responds” in test [3] (MPL10-10 line, peptide-NH2); “responds” in test [3] (MPL10-12 line, peptide-NH2); “responds” in test [3] (setting [4]); “responds” in test [3] (setting [5]).
In the case of “KAARSARSGEGYFLTDEKTSLVYGDGG (listed as Leishmania infantum) [SEQ ID NO: 157]”, the “IFN-γ ELISPOT response of specific line” value is on record as “responds” in test [3] (MPL10-3 line, peptide-NH2); “responds” in test [3] (MPL10-4 line, peptide-NH2); “responds” in test [3] (MPL10-7 line, peptide-NH2); “responds” in test [3] (MPL10-8 line, peptide-NH2); “responds” in test [3] (MPL10-10 line, peptide-NH2); “responds” in test [3] (MPL10-12 line, peptide-NH2). Besides, the “IFN-γ ELISPOT response of specific line” value in test [3] (setting [4]) and in test [3] (setting [5]) was “responds” in each case.
Regarding “KGRLHSVVGRHLSIVADHMPHLDQ (Leishmania major) [SEQ ID NO: 97]”, the “IFN-γ ELISPOT response of specific line” value in test [3] (MPL10-4 line, peptide-NH2) is recorded as “responds”; in test [3] (MPL10-7 line, peptide-NH2), “responds”; in test [3] (MPL10-8 line, peptide-NH2), “responds”; in test [3] (MPL10-10 line, peptide-NH2), “responds”; in test [3] (setting [5]), “responds”.
On to “KARYMPHVDQSSIARYASFRSTEAIRYSSIMVVANK (Leishmania major) [SEQ ID NO: 77]”, for which the “IFN-γ ELISPOT response of specific line” value in test [3] (MPL10-4 line, peptide-NH2) is on record as “responds”; in test [3] (MPL10-7 line, peptide-NH2), “responds”; in test [3] (MPL10-10 line, peptide-NH2) it was “responds”; in test [3] (setting [5]) it was “responds”.
For “KGRSENAIVTSRKVQEEVFDLFTDVHYSEVSAKTK (Leishmania major) [SEQ ID NO: 138]”, the “IFN-γ ELISPOT response of specific line” value in test [3] (MPL10-4 line, peptide-NH2) was “responds”; in test [3] (MPL10-8 line, peptide-NH2) it was “responds”; in test [3] (MPL10-10 line, peptide-NH2) it was “responds”; in test [3] (setting [5]), “responds”.
